From US20180028516A1, “METHODS AND DEVICES FOR THE TREATMENT OF OCULAR DISEASES IN HUMAN SUBJECTS” (CLEARSIDE BIOMEDICAL, INC., priority 2012, published 2018)
Entries after “also recorded” stand apart in the source; their conditions may differ.

Key:
[1] = system: LPS-induced acute posterior uveitis; assay: Ocular histopathology and histologic inflammatory scores in porcine uveitis study (Example 13); type: in vivo
Method: Pigs were euthanized on study day 3 after clinical scoring, OCT, ERG, and wide-field ocular fundus photography was completed. After euthanasia with an overdose of intravenous barbiturate, both eyes were removed, Aqueous humor (All) was aspirated and a 1 mL sample of vitreous humor (VH) was collected from each eye immediately after euthanasia. The globe was then fixed in Davidson's solution for 24 hours, followed by alcohol. Central, saggital sections of each globe, including the optic nerve, were stained with hematoxylin and eosin and examined by light microscopy. Two pathology-trained observers, masked to the study groups, graded degree of inflammatory infiltrate of the ocular anterior and posterior segments. The grading scale for the anterior and posterior ocular segment used was as follows: 0=no evidence of cellular infiltrate; 1=a few cells infiltrated (mild)−focal; 2=a few cells infiltrated (mild)−diffuse; 3=moderate number of cells infiltrated; and 4=high amount of cellular infiltrate.
Differences were considered significant at P<0.05.

[2] = Ocular safety and histopathology after SCS TA (Example 8); type: in vivo, pigmented rabbits; conditions: SCS TA by microneedle, up to 120 days
Method: in this study, the total amount of triamcinolone acetonide (TA) delivered into live pigmented rabbit eyes when injected, into the suprachoroidal space using a hollow microneedle or into the vitreous using a standard 30 gauge needle was compared.
On Day 0, pigmented rabbits were injected with either intravitreal or bilateral suprachoroidal injections of 2 mg/100 μl TA Triesence® (TA; Alcon Labs). intravitreal injections were performed using a 30 g needle (Becton-Dickinson) and suprachoroidal injections were performed using a 33 g 750 μm microneedle. The residual amount of TA present in the syringe/needle assembly after injection was determined by RP-HPLC. Clinical observations, slit lamp biomicroscopy with McDonald-Shadduck scoring, intraocular pressure assessment (IOP), electroretinography (ERG), and systemic exposure were assessed up to 120 days post-dose. Animals were sacrificed at 30 minutes, 7 days, 30 days, 60 days, and 120 days for macroscopic observations, ocular toxicokinetics, and ocular histopathology.

[3] = system: LPS-induced acute posterior uveitis; assay: Wide-field ocular fundus digital photography in porcine uveitis study (Example 13); type: in vivo, domestic weanling pigs; conditions: 3 days after treatment
Source text: On study days −1, 0 and 3, with the animals anesthetized arid pupils dilated with tropicamide 1%, the ocular fundus was photographed using standardized illumination and focus by a wide-field digital imaging system (Retcam II, Clarity Medical Systems, Pleasanton, Calif.).

[4] = Safety endpoints (mortality, body weights, ocular observations, IOP) in the rabbit uveitis study (Example 11); type: in vivo, New Zealand White rabbits
Method: In this study, the effects of pretreatment with suprachoroidal or intravitreal triamcinolone acetonide (TA) in a subretinal endotoxin-induced model of posterior segment uveitis in New Zealand White rabbits was evaluated.
On Day 1, female rabbits (4 eyes/group) received a single unilateral injection of vehicle or 4 mg TA (Triesence®, 40 mg/mL suspension, Alcon Labs) into the suprachoroidal space (SCS) using a 33 g 750 μm microneedle, or a 4 mg TA IVT injection using a standard 30 g needle. On Day 6, each animal received a single unilateral subretinal injection of lipopolysaccharide (LPS, 20-30 μL, 203 μg/g of 1% sodium hylauronate) to induce ocular inflammation in the treated eye. Animals were monitored for 22 days following dose administration. Endpoints included body weights, ocular observations, slit lamp biomicroscopy with McDonald-Shadduck scoring and photography, indirect ophthalmoscopy, fundus photography, intraocular pressure (IOP), and histopathology. A summary of the study design is shown below, in Table 6.

[5] = Ophthalmic examinations and clinical observations after 4 mg SCS TA (Example 16); type: in vivo, New Zealand White rabbit; conditions: single bilateral suprachoroidal injection of 4 mg TA, albino rabbit
Method: In this study, the ocular tolerability and toxicokinetics of suprachoroidal administration of Ting triamcinolone acetonide (TA) using microneedle was determined, in the New Zealand White rabbit as an animal model.
On Day 0, New Zealand White (NZW) rabbits (4/sex/group/terminal time point, 48 total) were administered a single bilateral suprachoroidal injection of 100 μL of 4 ma TA (40 mg/mL) or vehicle, using a 33 g 750 μm microneedle. Clinical Observations, body weights, food consumption, slit lamp biomicroscopy with McDonald-Shadduck scoring, indirect ophthalmoscopy, intraocular pressure assessment (IOP), central corneal thickness (CCT), electroretinography (ERG), serum chemistry and hematology, and systemic exposure were assessed up to 13 weeks post-dose. Animals were sacrificed on Day 1 or Week 13 and were evaluated for macroscopic observations at necropsy and ocular histopathology. Four animals/sex were given an additional suprachoroidal administration on Day 90, and will be followed for an additional 13 weeks.

[6] = Ophthalmic examinations (slit lamp, fundus) and clinical observations after SCS TA (Example 9); type: in vivo, New Zealand White rabbit
Method: In this study, the ocular tolerability and toxicokinetics of suprachoroidal administration of triamcinolone acetonide (TA) using a microneedle in a GLP study in the New Zealand White rabbit.
On Day 0, New Zealand White (NZW) rabbits were administered a single bilateral supraehoroidal injection of vehicle, 3.2 mg (80 μL) or 5.2 mg (130 μL) of TA (Triesence®, Alcoa labs) using a 33 g 750 μm microneedle. Clinical observations, slit lamp biomicroscopy with McDonald-Shadduck scoring, intraocular pressure assessment (IOP), electroretinography (ERG), and systemic exposure were assessed up to 26 weeks post-dose. Animals were sacrificed on Day 1, Week 13, and Week 26 for macroscopic observations, ocular toxicokinetics, and ocular histopathology.

[7] = Group 3: LPS intravitreal/low dose (0.2 mg) TA SCS
[8] = Group 4: LPS intravitreal/high dose (2.0 mg) TA SCS
[9] = Group 5: LPS intravitreal/low dose (0.2 mg) TA IVT
[10] = Group 6 (printed: LPS intravitreal/high dose TA SCS)
[11] = 3.2 mg TA/eye SCS, F, 13 weeks post administration
[12] = 5.2 mg TA/eye SCS, F, 13 weeks post administration
[13] = 5.2 mg TA/eye SCS, M, 13 weeks post administration

## CC1(C)O[C@@H]2C[C@H]3[C@@H]4CCC5=CC(=O)C=C[C@]5(C)[C@@]4(F)[C@@H](O)C[C@]3(C)[C@]2(C(=O)CO)O1 [TA, triamcinolone acetonide]
[1]; 2.0 mg TA SCS (Group 4)
  inflammation or histologic evidence of toxicity in the SCS: no inflammation or histologic evidence of toxicity in the SCS
[1]; [7]
  histopathology, inner retinal layers and vitreous: moderate infiltrate of neutrophils
  histopathology, iris: mild neutrophilic infiltrate
[1]; [8]
  histopathology, anterior segment: normal
  histopathology, vitreous: very mild neutrophilic infiltration
[1]; Group 4: high dose TA SCS
  mean histologic inflammatory scores in the ocular posterior segment compared with Groups 2, 5 and 6: significantly lower
[1]; [9]
  histopathology, anterior uvea: mild neurophilic infiltrate
  histopathology, vitreous: moderate to severe cellular infiltrate
[1]; Group 5: low dose TA IVT
  mean histologic inflammatory scores in the anterior segment compared with Groups 4 and 6: significantly higher
[1]; [10]
  histopathology, anterior uvea: mild neutrophilic infiltrate
  histopathology, vitreous: moderate vitreal infiltrates
[1]; Group 6: high dose IVT TA
  mean histologic inflammatory scores compared with vehicle treated eyes (Group 2): significantly lower
[1]; all groups, 0.2 or 2.0 mg TA SCS or IVT
  tissue structural or toxicologic changes on histopathology: None of the eyes examined in any group had evidence of substantial tissue structural or toxicologic changes
[2]
  safety profile (inflammation, edema, apoptosis, necrosis): no marked inflammation, edema, apoptosis, or necrosis at any time point
[3]; 0.2 mg TA IVT
  ocular fundus images (vitreal cloudiness): only slightly improved over vehicle treated eyes
[3]; 0.2 mg TA SCS
  ocular fundus images (vitreal cloudiness): less vitreal cloudiness and similar to the pre-treatment fundus appearance; also recorded: near pre-treatment appearance
[3]; 2.0 mg TA IVT
  ocular fundus images (vitreal cloudiness): less vitreal cloudiness and similar to the pre-treatment fundus appearance; also recorded: near pre-treatment appearance
[3]; 2.0 mg TA SCS
  ocular fundus images (vitreal cloudiness): less vitreal cloudiness and similar to the pre-treatment fundus appearance; also recorded: near pre-treatment appearance
[4]; 4 mg TA SCS
  IOP after SCS TA administration: no significant increase
[4]; 4 mg TA SCS or IVT
  effects on mortality, body weights, or ocular observations: no test article- or administration-related effects
[5]
  tolerability: well tolerated
[6]; [11]
  Conjunctival congestion (slight, transient), animals with finding: 2
  Conjunctival discharge (slight, transient), animals with finding: 2
  Corneal Staining (slight, transient), animals with finding: 1
  Hyperemia (severe, transient), animals with finding: 1
  Lens Defect (anatomic defect unrelated to administration), animals with finding: 1
[6]; 3.2 mg TA/eye SCS, M, 13 weeks post administration
  Corneal Staining (slight, transient), animals with finding: 1
[6]; [12]
  Conjunctival discharge (slight, transient), animals with finding: 1
  Corneal Staining (slight, transient), animals with finding: 2
[6]; [13]
  Conjunctival congestion (slight, transient), animals with finding: 1
  Corneal Staining (slight, transient), animals with finding: 4
[6]; 3.2 or 5.2 mg TA SCS
  adverse effects on clinical observations, body weight, or ophthalmic examinations: no adverse effects
  adverse effects related to treatment: no observed adverse effects
[6]; 3.2 or 5.2 mg TA SCS, up to 13 weeks
  findings during slit lamp biomicroscopy and fundus examination: generally mild and transient in nature
